Assay results as given in US10253071B2, “Selectin inhibitors, composition, and uses related thereto” (Beth Israel Deaconess Medical Center, Inc., priority 2014, dated 2019).
pIC50: −log10 of the molar value. Like-named read-outs stand apart in the source and are kept apart here. Square brackets hold non-standard residues; d marks the D form. Peptide text beside a SMILES is read from it. * marks the point of attachment. X1 = CC(=O)N[C@@H]1[C@@H](O[C@@H]2O[C@H](CO)[C@H](O)[C@H](O)[C@H]2O)[C@@H](O)[C@@H](CO[C@@H]2O[C@H](CO)[C@@H](O[C@@H]3O[C@H](CO)[C@H](O)[C@H](O[C@]4(C(=O)O)C[C@H](O)[C@@H](NC(C)=O)[C@H]([C@H](O)[C@H](O)CO)O4)[C@H]3O)[C@H](O[C@@H]3O[C@@H](C)[C@@H](O)[C@@H](O)[C@@H]3O)[C@H]2NC(C)=O)O[C@@H]1*; Phe(4-CH2SO3H) = N[C@@H](Cc1ccc(CS(=O)(=O)O)cc1)C(=O)O; Mca = COc1ccc2c(CC(=O)*)cc(=O)oc2c1

Tests used:
[1] = biological target: T1, Recombinant mouse L-selectin Fc chimera (Mus musculus, UniProt P18337); test: Flow cytometry, inhibition of mouse L-selectin Fc chimera binding to murine neutrophils; type: cell-based; conditions: chimera 2 μg/mL, read-out: IC50, PSGL-1/L-selectin interactions, murine neutrophils
T1 sequence (P18337 39-372): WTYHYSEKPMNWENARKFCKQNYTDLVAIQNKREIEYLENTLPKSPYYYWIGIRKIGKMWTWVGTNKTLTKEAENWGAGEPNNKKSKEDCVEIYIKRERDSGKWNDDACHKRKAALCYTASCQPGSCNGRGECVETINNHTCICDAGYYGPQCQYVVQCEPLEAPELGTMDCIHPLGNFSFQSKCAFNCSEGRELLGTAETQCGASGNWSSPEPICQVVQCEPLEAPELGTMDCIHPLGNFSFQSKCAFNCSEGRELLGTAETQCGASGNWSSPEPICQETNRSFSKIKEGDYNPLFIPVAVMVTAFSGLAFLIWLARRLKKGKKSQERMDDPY
Procedure: (§1) Flow cytometry was used to characterize the ability of GSnP-6 to block binding of selectin-IgG chimeras to murine and human leukocytes. Recombinant mouse P- or L-selectin Fc chimera (2 μg/mL) was incubated with murine neutrophils and GSnP-6 (0-30 μM). Likewise, recombinant human P-selectin or L-selectin Fc chimera were incubated with human peripheral blood neutrophils and monocytes, as well as the human U937 cell line in the presence of GSnP-6 (0-30 μM). Binding of selectin-IgG chimeras was detected with PE-conjugated anti-IgG antibody, quantified as mean fluorescent intensity, and plotted as percent inhibition. Specificity was confirmed with selectin-specific blocking antibodies.

[2] = biological target: T2, Recombinant mouse P-selectin Fc chimera (Mus musculus, UniProt Q01102); test: Flow cytometry, inhibition of mouse P-selectin Fc chimera binding to murine neutrophils; type: cell-based; conditions: murine PMN; chimera 2 μg/mL; read-out: IC50, P-selectin dependent interactions, murine PMN
T2 sequence (Q01102 42-768): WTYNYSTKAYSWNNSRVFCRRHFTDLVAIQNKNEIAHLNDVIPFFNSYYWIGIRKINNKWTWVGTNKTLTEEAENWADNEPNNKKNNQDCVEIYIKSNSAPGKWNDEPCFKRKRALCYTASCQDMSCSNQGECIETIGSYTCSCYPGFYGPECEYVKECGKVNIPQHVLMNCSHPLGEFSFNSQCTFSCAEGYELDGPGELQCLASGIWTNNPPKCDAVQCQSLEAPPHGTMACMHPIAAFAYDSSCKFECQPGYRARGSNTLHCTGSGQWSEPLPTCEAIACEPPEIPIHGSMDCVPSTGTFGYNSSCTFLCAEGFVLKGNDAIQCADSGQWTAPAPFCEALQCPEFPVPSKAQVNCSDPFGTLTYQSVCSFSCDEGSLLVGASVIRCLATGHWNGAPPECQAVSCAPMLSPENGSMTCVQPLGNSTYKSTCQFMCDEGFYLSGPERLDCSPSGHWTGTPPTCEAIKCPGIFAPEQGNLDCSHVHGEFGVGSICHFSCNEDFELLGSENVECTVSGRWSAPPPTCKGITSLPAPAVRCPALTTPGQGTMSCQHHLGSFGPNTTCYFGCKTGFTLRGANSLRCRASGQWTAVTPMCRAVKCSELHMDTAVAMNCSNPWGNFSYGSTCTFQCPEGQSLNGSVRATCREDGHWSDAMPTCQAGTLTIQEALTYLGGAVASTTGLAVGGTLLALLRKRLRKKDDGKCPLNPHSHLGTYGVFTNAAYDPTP
Procedure: as §1

[3] = test system: leukocyte binding to microvascular endothelium; test: Intravital microscopy of murine cremaster muscle microcirculation, leukocyte rolling; type: in vivo; conditions: mouse cremaster venules 30 to 40 μm, 4 μmol/kg IV, saline 40.8±1.7, p≤0.01
Procedure: Intravital microscopy was used to determine the ability of GsnP-6 to inhibit leukocyte binding to microvascular endothelium. PSGL-1 expressed on circulating leukocytes binds to selectins on endothelium; inducing leukocyte rolling to facilitate subsequent tight binding to integrin receptors. Inhibition of this interaction leads to an increase in rolling velocity. Intravital microscopy of the murine cremaster muscle microcirculation was performed on venules with a diameter of 30 to 40 μm. Seven venules per mouse (n=4, saline (control); n=3, GSnP-6, 4 μmol/kg IV) were analyzed and the velocities of 5 to 10 rolling leukocytes were determined in each venule by individually tracking leukocyte distance/time (μm/s). A significant increase in mean rolling velocity was observed after intravenous administration of GSnP-6 (FIG. GsnP-6: 74.9±3.4 μm/s, saline: 40.8±1.7 μm/s; p≤0.01).

[4] = biological target: T3, recombinant human P-selectin Fc chimera (Homo sapiens, UniProt P16109); test: Flow cytometry, inhibition of human P-selectin Fc chimera binding to human leukocytes; type: cell-based
T3 sequence (P16109 42-830): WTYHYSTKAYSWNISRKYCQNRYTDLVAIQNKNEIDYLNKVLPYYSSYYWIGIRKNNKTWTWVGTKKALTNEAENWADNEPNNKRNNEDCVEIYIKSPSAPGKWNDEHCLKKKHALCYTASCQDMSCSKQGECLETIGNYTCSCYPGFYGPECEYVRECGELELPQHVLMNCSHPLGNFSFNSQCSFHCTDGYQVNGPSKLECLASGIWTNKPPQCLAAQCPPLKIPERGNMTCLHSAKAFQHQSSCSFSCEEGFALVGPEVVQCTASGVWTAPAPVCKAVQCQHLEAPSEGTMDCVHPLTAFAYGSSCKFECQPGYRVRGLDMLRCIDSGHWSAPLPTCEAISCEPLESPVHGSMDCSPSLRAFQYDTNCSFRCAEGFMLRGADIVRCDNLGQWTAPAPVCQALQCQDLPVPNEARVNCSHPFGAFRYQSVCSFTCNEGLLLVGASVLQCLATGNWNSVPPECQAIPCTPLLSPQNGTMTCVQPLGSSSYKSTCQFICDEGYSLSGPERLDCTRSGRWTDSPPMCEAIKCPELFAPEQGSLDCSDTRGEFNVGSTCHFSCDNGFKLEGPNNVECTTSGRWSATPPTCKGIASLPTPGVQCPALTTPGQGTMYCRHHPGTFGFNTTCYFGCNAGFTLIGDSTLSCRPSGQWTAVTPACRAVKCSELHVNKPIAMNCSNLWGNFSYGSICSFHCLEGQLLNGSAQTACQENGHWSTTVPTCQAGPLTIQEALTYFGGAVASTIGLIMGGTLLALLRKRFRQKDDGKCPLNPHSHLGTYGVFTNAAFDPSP
Procedure: as §1

COc1ccc2c(CC(=O)NCCCC[C@H](N)C(=O)N[C@@H](CCC(=O)O)C(=O)N[C@@H](Cc3ccc(CS(=O)(=O)O)cc3)C(=O)N[C@@H](CCC(=O)O)C(=O)N[C@@H](Cc3ccc(CS(=O)(=O)O)cc3)C(=O)N[C@@H](CC(C)C)C(=O)N[C@@H](CC(=O)O)C(=O)N[C@@H](Cc3ccc(CS(=O)(=O)O)cc3)C(=O)N[C@@H](CC(=O)O)C(=O)N[C@@H](Cc3ccccc3)C(=O)N[C@@H](CC(C)C)C(=O)N3CCC[C@H]3C(=O)N[C@@H](CCC(=O)O)C(=O)N[C@H](C(=O)N[C@@H](CCC(=O)O)C(=O)N3CCC[C@H]3C(=O)N[C@@H](CC(C)C)C(=O)O)[C@@H](C)O[C@H]3O[C@H](CO[C@@H]4O[C@H](CO)[C@@H](O[C@@H]5O[C@H](CO)[C@H](O)[C@H](O[C@]6(C(=O)O)C[C@H](O)[C@@H](NC(C)=O)[C@H]([C@H](O)[C@H](O)CO)O6)[C@H]5O)[C@H](O[C@@H]5O[C@@H](C)[C@@H](O)[C@@H](O)[C@@H]5O)[C@H]4NC(C)=O)[C@H](O)[C@H](O[C@@H]4O[C@H](CO)[C@H](O)[C@H](O)[C@H]4O)[C@H]3NC(C)=O)cc(=O)oc2c1 [GSnP-6] (H-K(Mca)E[Phe(4-CH2SO3H)]E[Phe(4-CH2SO3H)]LD[Phe(4-CH2SO3H)]DFLPET(X1)EPL-OH)
pIC50 [1]: < 4.30
pIC50 [2]: ~4.82
mean leukocyte rolling velocity [3]: increased leukocyte rolling velocity
mean leukocyte rolling velocity ([3]; listed as GsnP-6): 74.9±3.4 μm/s
pIC50 ([4]; human U-937 cells, GSnP-6 0-30 μM, read-out: IC50, P-selectin dependent interactions, human U-937 cells): ~5.10
pIC50 ([4]; human peripheral blood monocytes, read-out: IC50, P-selectin dependent interactions, human monocytes): ~4.52
pIC50 ([4]; human peripheral blood neutrophils (PMN), read-out: IC50, P-selectin dependent interactions, human PMN): ~4.52
